From patent US9408853B2, “Iridium/rhodium anti-cancer compounds” (University of Warwick, priority 2010, dated 2016)

How the values were obtained:
[1] = Determination of pKa* of coordinated D2O by 1H NMR pH* titration; assay type: physicochemical; settings: for pKa (deprotonation of coordinated D2O): calculated from pKa* according to Krezel and Bal (pKa=0.929pKa*+0.42); for pKa* (deprotonation of coordinated D2O): in D2O
Description: pH* Measurement. pH* values (pH meter reading without correction for effects of D on glass electrode) of NMR samples in D2O were measured at ca. 298 K directly in the NMR tube, before and after recording NMR spectra, using a Corning 240 pH meter equipped with a micro combination electrode calibrated with Aldrich buffer solutions of pH 4, 7 and 10. For determination of the pKa* value of aquated complexes, complexes were dissolved in D2O and 0.98 mol equiv of AgNO3 was added. The solution was stirred for 24 h at 298 K, and AgCl was removed by filtration.
Determination of pKa* Values. […] The chemical shifts of the chelating ligands or/and methyl group of Cp* protons were plotted against pH*. The pH* titration curves were fitted to the Henderson-Hasselbalch equation, with the assumption that the observed chemical shifts are weighted averages according to the populations of the protonated and deprotonated species.
The changes in the ^1H NMR chemical shifts for the protons of the coordinated chelating ligands in compounds ZL25A, ZL54A, ZL38A, chelating ligands and methyl group in Cp* or Cp^xph in compounds ZL04A, ZL07A, ZL37A, ZL03A, and methyl group in Cp* in compound ZL01A were followed with change in pH* over a range of 2-11. The mean pKa* value was taken for each complex.
When the pH* values of the solutions were increased from about 2 to 11, the NMR peaks assigned to ZL01A, ZL03A, ZL04A, ZL07A, ZL25A, ZL37A, ZL38A and ZL54A gradually shifted to high field in the spectrum.
When the pH* values of the solutions were increased from about 2 to 10, the NMR peaks assigned to aqua complexes ZL47A, ZL49A, ZL69A and ZL74A gradually shifted to high field in the spectrum. The resulting pH titration curves were fitted to the modified Henderson-Hasselbalch equation, from which the pKa* values of the coordinated water were determined.

[2] = test system: 9-ethylguanine (9-EtG); test: Interactions with nucleobases: 9-EtG adduct formation (1H NMR); assay type: binding; settings: 1 mM, 1 mol equiv 9-EtG (ZL33A: 2 mol equiv), D2O, 310 K
Description: (§1) Interactions with Nucleobases. The reaction of ZL01, ZL03, ZL04, ZL07, ZL25, ZL33, ZL37, ZL38, ZL43 and ZL54 and ZL33A with nucleobases typically involved addition of a solution containing 1-2 mol equiv of nucleobase in D2O, to an equilibrium solution of ZL01, ZL03, ZL04, ZL07, ZL25, ZL33, ZL37, ZL38, ZL43, ZL54 and ZL33A in a solution of 5% MeOD-d4/95% D2O (v/v). ^1H NMR spectra of these solutions were recorded at 310 K after various time intervals.
(§2) Since DNA is a potential target site for transition metal anticancer complexes,^18 nucleobase binding reactions of compounds ZL01, ZL03, ZL04, ZL07, ZL25, ZL33, ZL33A, ZL37, ZL38, ZL43 and ZL54 with nucleobase models 9-ethylguanine (9-EtG) and 9-ethyladenine (9-EtA), were investigated. Solutions of ZL01, ZL03, ZL04, ZL07, ZL25, ZL33, ZL37, ZL38, ZL43 and ZL54 (1 mM) (containing an equilibrium mixture of these complexes and their respective aqua adducts) with 1 mol equivalent of 9-EtG or 9-EtA in D2O were prepared, and ^1H NMR spectra were recorded at different time intervals.
Interactions with Nucleobases. Since DNA is a potential target site for transition metal anticancer complexes,^23 the binding of 9-ethylguanine (9-EtG) to complexes ZL47, ZL49, ZL69, ZL74 and ZL107 was studied.

[3] = test system: 9-ethyladenine (9-EtA); test: Interactions with nucleobases: 9-EtA adduct formation (1H NMR); assay type: binding; settings: 1 mM, 1 mol equiv 9-EtA, D2O, 310 K
Description: as §1, §2

[4] = test system: human ovarian A2780 cancer cells; test: Cancer cell cytotoxicity, SRB assay; assay type: cell-based; settings: 24 h exposure, 72 h recovery, SRB; read-out: A2780 IC50
Description: Cancer Cell Cytotoxicity. After plating, human ovarian A2780 cancer cells were treated with Ir^III complexes on day 3 at concentrations ranging from 0.5 μM to 100 μM. Solutions of the Ir^III complexes were made up in 0.125% DMSO to assist dissolution. Stock solutions of the IrIII complexes were firstly prepared in DMSO to assist dissolution, and then diluted into 0.9% saline and medium. After plating 5000 A2780 cells per well on day 1, IrIII complexes were added to the cancer cells on day 3 at concentrations ranging from 0.05 μM to 100 μM. Cells were exposed to the complexes for 24 h, washed, supplied with fresh medium, allowed to grow for three doubling times (72 h), and then the protein content measured (proportional to cell survival) using the sulforhodamine B (SRB) assay.^15 […]. The standard errors are based on two independent experiments of three replicates each.

[5] = Kinetics of hydrolysis followed by 1H NMR; assay type: physicochemical; settings: for k (hydrolysis): 0.2 mM, 5% MeOD-d4/95% D2O, pH* 3
Description: Kinetics for Hydrolysis. Although complexes ZL01-ZL04, ZL07, ZL38 and ZL43 hydrolyzed too rapidly to monitor by ^1H NMR, The kinetics of hydrolysis for complexes ZL25, ZL33, ZL37 and ZL54 were followed by ^1H NMR at different temperatures. For this, solutions of the complexes with a final concentration of 0.2 mM in 5% MeOD-d4/95% D2O (v/v) were prepared by dissolution of the complexes in MeOD-d4 followed by rapid dilution using D2O with a pH* of about 3 (acidified with HClO4), so that the aqua ligand was not deprotonated. ^1H NMR spectra were taken after various time intervals. The rates of hydrolysis were determined by fitting plots of concentrations (determined from ^1H NMR peak integrals) versus time to a pseudo first-order equation using ORIGIN version 7.0. The Arrhenius activation energy (Ea), activation enthalpies (ΔH^¢), and activation entropy (ΔS^‡) for compounds ZL25, ZL33, ZL37 and ZL54 were determined from the slopes of the Arrhenius and intercepts of Eyring plots.
The rates of hydrolysis of compounds ZL01-ZL04, ZL07, ZL25, ZL33, ZL37, ZL38, ZL43 and ZL54 in a 5% MeOD-d4/95% D2O were monitored by ^1H NMR at different temperature from 278 to 298 K by the observation of new peaks over time due to aqua adduct formation. Five percent MeOD was used to improve solubility, and acidic conditions (D2O, pH* 3) were used to prevent the deprotonation of the aqua complex as a secondary reaction. […] The percentage of aqua peak formation for ZL25, ZL33, ZL37 and ZL54 was plotted against time and was fitted to pseudofirst order kinetics (FIG. 3), and their halflife times were calculated (Table 1). The Arrhenius activation energy (Ea), activation enthalpy (ΔH^¢), and activation entropy (ΔS^‡) of compound ZL25, ZL33, ZL37 and ZL54 are listed in Table 4. The large negative ΔS^‡value for compound ZL54 is notable. The extent of hydrolysis at equilibrium is medium for all compounds, ranged from 30% to 60%.

Molecule	pKa (deprotonation of coordinated D2O) [1]	pKa* (deprotonation of coordinated D2O) [1]	Reaction with 9-EtG, extent of adduct formation ([2]; 10 min)	Reaction with 9-EtA, extent of adduct formation ([3]; 10 min)	Reaction with 9-EtA, extent of adduct formation ([3]; 24 h)	IC50 [4]	also measured
[(η^5-C5Me4C6H5)Ir(bipy)OD2]^2+ [ZL37A]	6.28	6.31					
[(η^5-C5Me5)Ir(pico)OD2]^+ [ZL03A]	7.99	8.15					
Cc1c(C)c(C)[c-](C)c1C.F[P-](F)(F)(F)(F)F.NCCN.[Cl-].[Ir+3] [ZL01, [(η^5-C5Me5)IrCl(H2NCH2CH2NH2—N,N)]PF6]			100%	0%	0%	> 100 µM	Reaction with 9-EtG, extent of adduct formation ([2]; 24 h): 100%
Cc1c(C)c(-c2ccc(-c3ccccc3)cc2)[c-](C)c1C.O=C([O-])c1ccccn1.[Cl-].[Ir+3] (centres unmarked) [ZL43, [(η^5-C5Me4C6H4C6H5)Ir(η^2—C5H4N-2-CO2)Cl]]			100%	71%	71%	16.3 µM	rate of hydrolysis (in words) ([5]; 1H NMR, even at 278K): too rapid to be observed; Reaction with 9-EtG, extent of adduct formation ([2]; 24 h): 100%
[(η^5-C5Me4C6H5)Ir(pico)OD2]^+ [ZL38A]	7.62	7.75					
Cc1c(C)c(C)[c-](C)c1C.[2H]O[2H].[Ir+3].c1ccc(-c2ccccn2)nc1 [ZL04A, [(η^5-C5Me5)Ir(bipy)OD2]^2+]	6.86	6.94					
Cc1c(C)c(C)[c-](C)c1C.NCCN.[2H]O[2H].[Ir+3] [ZL01A, [(η^5-C5Me5)IrCl(en)OD2]^2+]	7.54	7.66					
Cc1c(C)c(C)[c-](C)c1C.[2H]O[2H].[Ir+3].c1cnc2c(c1)ccc1cccnc12 [ZL07A, [(η^5-C5Me5)Ir(phen)OD2]^2+]	7.74	7.88					
[(η^5-C5Me4C6H4C6H5)Ir(phen)OD2]^2+ [ZL54A]	7.38	7.50					
Cc1c(C)c(C)[c-](C)c1C.[Cl-].[Cl][Ir]1[n+]2ccccc2-c2cccc[n+]21 [ZL04, [(η^5-C5Me5)Ir(bipy)Cl]Cl]			28.2%	0%	0%	> 100 µM	
[(η^5-C5Me4C6H4C6H5)Ir(2-phpy)(D2O)]^+ [ZL49A]	8.31	8.50					
[(η^5-C5Me5)Ir(2-phpy)(D2O)]^+ [ZL47A]	8.75	8.97					
[(η^5-C5Me4C6H5)Ir(phen)(H2O)]^2+ [ZL33A]			65%	0%	0%	6.7 µM	Reaction with 9-EtG, extent of adduct formation ([2]; 24 h): 73%
[(η^5-C5Me5)Ir(2-dfphpy)(D2O)]^+ [ZL74A]	8.32	8.51					
[(η^5-C5Me5)Ir(tpy)(D2O)]^+ [ZL69A]	8.87	9.10					
Cc1c(C)c(C)[c-](C)c1C.O=C([O-])c1ccccn1.[Cl-].[Ir+3] [ZL03, [(η^5-C5Me5)Ir(η^2—C5H4N-2-CO2)Cl]]			100%	80.8%	80.7%	> 100 µM	Reaction with 9-EtG, extent of adduct formation ([2]; 24 h): 100%
[(η^5-C5Me4C6H4C6H5)Ir(bipy)OD2]^2+ [ZL25A]	6.63	6.68					
Cc1c(C)c(-c2ccccc2)[c-](C)c1C.F[P-](F)(F)(F)(F)F.[Cl-].[Ir+3].c1ccc(-c2ccccn2)nc1 (centres unmarked) [ZL37, [(η^5-C5Me4C6H5)Ir(bipy)Cl]PF6]			18.6%	0%	0%	15.9 µM	k (hydrolysis) ([5]; 278 K): 0.0341 min⁻¹; k (hydrolysis) ([5]; 283 K): 0.0652 min⁻¹; k (hydrolysis) ([5]; 288 K): 0.1229 min⁻¹; Ea (Arrhenius activation energy of hydrolysis) ([5]; from Arrhenius plot): 82.4 kJ/mol; ΔH^‡ (activation enthalpy of hydrolysis) ([5]; from Eyring plot): 79.8 kJ/mol; ΔS^‡ (activation entropy of hydrolysis) ([5]; from Eyring plot): 14.7 J K^−1mol^−1
